Assays:
[1] = system: ribosomal S6 protein phosphorylation in wild-type (Nf1+/+) astrocytes; assay: S6 phosphorylation (phospho-S6 Ser240/244 Western blot) in wild-type astrocytes; type: cell-based, mouse; settings: for S6 phosphorylation: wild-type astrocytes
Description: (§1) Western blot analysis was performed as described previously in, for example, Dasgupta B et al., The Neurofibromatosis 1 Gene Product Neurofibromin Regulates Pituitary Adenylate Cyclase-Activating Polypeptide-Mediated Signaling in Astrocytes, J. NEUROSCI. 23:8949-8954 (2003). The following antibodies were used: anti-NF1GRP, nucleolin, and cyclin D1 (Santa Cruz Biotechnology, Santa Cruz, Calif.), phospho-S6 (Serine-240/244; Cell Signaling Technology, Beverley, Mass.), α-tubulin and fibrillarin (Sigma, St. Louis, Mo.), anti-T7 (Novagen, Madison, Wis.), anti-KT3 (Babco, Richmond, Calif.), NPM (Zymed, San Francisco, Calif.), and L7 (Novus Biologicals, Littleton, Colo.).
(§2) One of the downstream targets of activated RAS is P13-Kinase. See Rodriguez-Viciana P, et al., Phosphatidylinositol-3-OH Kinase as a Direct Target of Ras, NATURE 370:527-532 (1994). In this regard, loss of neurofibromin expression is associated with activation of the PI3K-AKT signaling pathway in human NF1-associated pilocytic astrocytoma and in Nf1−/− mouse myeloid cells. See Lau N, et al., Loss of Neurofibromin is Associated with Activation of Ras/MAPK and PI3K/AKT Signalling in a Neurofibromatosis 1 Astrocytoma, J NEUROPATHOL. EXP. NEUROL. 59:759-767 (2000); and Donovan S, et al., Hyperactivation of Protein Kinase B and Erk Have Discrete Effects on Survival, Proliferation, and Cytokine Expression in Nf1-Deficient Myeloid Cells, CANCER CELL 2:507-514 (2002). Several studies have shown that activation of the PI3K-AKT leads to activation of the mammalian target of rapamycin (mTOR), which leads to phosphorylation of S6 kinase and activation of ribosomal S6. See Chung J, et al., PDGF- and Insulin-Dependent pp70S6k Activation Mediated by Phosphatidylinositol-3-OH Kinase, NATURE 370:71-75 (1994); and Gingras A C, et al., Regulation of Translation Initiation by FRAP/mTOR, GENES DEV. […] To determine whether S6 hyperactivation in Nf1−/− astrocytes is downstream of PI3K and mTOR, S6 phosphorylation in both Nf1+/+ and Nf1−/− astrocytes in presence of a PI3K inhibitor (LY294002) and an mTOR inhibitor (rapamycin) was measured. […]

[2] = biological target: 12 kDa FK506 binding protein (FKBP12) (Homo sapiens, UniProt P62942); settings: cited from earlier work
[3] = system: ribosomal S6 protein phosphorylation in Nf1−/− astrocytes; assay: S6 phosphorylation (phospho-S6 Ser240/244 Western blot) in Nf1−/− astrocytes; type: cell-based, mouse
Description: as §1, §2

[4] = system: astrocytes; settings: mouse, 1 μM
Description: (§3) To determine whether the growth advantage of Nf1-deficient astrocytes reflected increased mTOR signaling, Nf1−/− astrocyte proliferation after rapamycin treatment was measured.

[5] = system: Nf1−/− astrocytes; assay: Astrocyte proliferation by 3[H]-thymidine incorporation, Nf1−/− astrocytes
Description: (§4) Murine neocortical astroglial cultures, containing >95% GFAP positive cells (astrocytes), were generated from postnatal day 2 Nf1^flox/flox and (LSL)-K-RAS^G12D; GFAPCre transgenic pups as previously described. […] Astrocyte proliferation assays were performed by ^3[H]-thymidine incorporation.
as §3

[6] = system: wild-type astrocytes; assay: Astrocyte proliferation by 3[H]-thymidine incorporation, wild-type astrocytes
Description: as §4, §3

[7] = biological target: FKBP-rapamycin binding domain (FRB) of mammalian target of rapamycin (mTOR) (Homo sapiens, UniProt P42345+P62942); settings: cited from earlier work
[8] = control astrocytes, FIG. 6 legend

Chain of FKBP-rapamycin binding domain (FRB) of mammalian target of rapamycin (mTOR) (P42345 2015-2114, species assumed): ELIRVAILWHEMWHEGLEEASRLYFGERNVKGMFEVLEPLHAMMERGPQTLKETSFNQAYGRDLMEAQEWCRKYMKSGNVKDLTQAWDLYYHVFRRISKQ
Chain of FKBP-rapamycin binding domain (FRB) of mammalian target of rapamycin (mTOR) (P62942 2-108, species assumed): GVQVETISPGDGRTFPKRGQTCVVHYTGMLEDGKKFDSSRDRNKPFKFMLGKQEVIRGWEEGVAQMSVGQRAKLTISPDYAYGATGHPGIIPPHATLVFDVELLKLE
Chain of 12 kDa FK506 binding protein (FKBP12) (P62942 whole entry, species assumed): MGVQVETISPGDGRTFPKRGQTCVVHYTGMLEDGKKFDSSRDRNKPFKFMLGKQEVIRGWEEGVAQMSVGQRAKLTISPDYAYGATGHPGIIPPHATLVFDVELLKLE

CO[C@H]1C[C@@H]2CC[C@@H](C)[C@@](O)(O2)C(=O)C(=O)N2CCCC[C@H]2C(=O)O[C@H]([C@H](C)C[C@@H]2CC[C@@H](O)[C@H](OC)C2)CC(=O)[C@H](C)/C=C(\C)[C@@H](O)[C@@H](OC)C(=O)[C@H](C)C[C@H](C)/C=C/C=C/C=C/1C [rapamycin, Rapamycin]
effect on ribosomal S6 protein phosphorylation in control astrocytes [1, 8]: little or no effect | S6 phosphorylation ([1]; 1 μM, FIG. 6 inset): no effect | S6 phosphorylation ([1]; 5 μM, FIG. 2C): completely inhibited | binding affinity to FKBP12 [2]: high affinity | S6 phosphorylation ([3]; 1 μM, FIG. 6 inset): significantly inhibited | S6 phosphorylation ([3]; 5 μM, FIG. 2C): completely inhibited | inhibition of ribosomal S6 protein phosphorylation, dose dependence ([3]; FIG. 6 legend): dose-dependent inhibition | cell survival (Trypan blue exclusion) [4]: greater than 98% | reduction of proliferation ([5]; 1 μM): 55±9.5% | inhibition of cell proliferation (growth), dose dependence ([5]; FIG. 6 legend): dose-dependent inhibition | effect on cell proliferation (growth) in control astrocytes [6, 8]: little or no effect | reduction of basal proliferation ([6]; wild-type astrocytes, 1 μM): 16±4% | binding affinity to FRB domain (E2015 to Q2114) of mTOR [7]: high affinity

— US20070004767A1, “Methods for treating neurofibromatosis 1” (priority 2005, published 2007)
